US20250368651A1 (priority 2022, published 2025)
Read-outs that look alike come from different tables or passages of the source.

Key:
[1] = target: von Hippel-Lindau (VHL) E3 ligase (Homo sapiens, UniProt P40337); settings: cited from earlier work
gene splicing = settings: cited from earlier work
in vitro [2] = settings: human
in vitro [3] = settings: human; remark: listed apart in the source
in vitro [4] = settings: human; remark: listed apart in the source
[5] = target: DNA Seq6 (UGAAGGAAGGU as deoxyribonucleotides); assay: FP binding assay, DNA Seq6; settings: footnote c: FP assay for DNA Seq6; range = 95% CI; read-out: Kd
Procedure: (§1) All synthetic DNA and RNA oligomers were purchased from Integrated DNA Technologies and reconstituted in nuclease-free water (Invitrogen #AM9932) at 1 mM. The concentration of the oligonucleotides at ˜0.1 mM was calibrated with the A260 value measured by a NanoDrop ND-1000 (Thermo, Waltham, MA, USA) and the predicted extinction coefficient (http://www.oligoevaluator.com) using Lamber-Beer's Law. The risdiplam analogues (1 mM in DMSO) were diluted in 2× assay buffer (40 mM HEPES, 200 mM NaCl for RNA; 40 mM HEPES, 200 mM NaCl, 1 mM MgCl2 for DNA) to make a 1 μM 2× working solution.
(§2) A 1:2 dilution series (8 points) of each oligonucleotide was prepared in 20-30 μL water to desired concentrations (i.e., 1-128 μM). 20-30 μL 2× working solution containing the 2× assay buffer and the small-molecule ligand was added to each oligonucleotide sample in 1:1 (v/v) and mixed by pipetting for 4 times. For fluorescence polarization measurement, 20 μL of the above 1× working solution was transferred into a 384-well, black, F-bottom microplates (Greiner Bio-One) in duplicates or triplicates. The plate was equilibrated at room temperature for 5 min before being read using a microplate reader (SYNERGY H1, BioTek; Excitation/Emission=360/460 nm) at 25° C. For compound SMN-C5, a competitive binding assay was employed to measure an apparent Kd. SMN-C5 was 1:2 serial diluted for 10 concentration points starting at 750 μM in DMSO. A mixture of SMN-C2 (0.5 μM) and DNA Seq6 (25 μM) in 1× assay buffer was prepared and incubated at room temperature for 10 minutes. 3 μL of SMN-C5 solution at each concentration was added to a 42 μL SMN-C2/DNA Seq6 mixture and incubated at room temperature for 10 minutes. The mixture was then transferred into a microplate (20 μL each well) in duplicates for fluorescence polarization readout. The experimental data were analyzed using Prism 8 software (Graphpad Software, San Diego, CA, USA).

RNA Seq4 […] = assay: FP binding assay, RNA Seq4
Procedure: as §1, §2

SMN2 exon 7 splicing = assay: Cell-based SMN2 splicing assay in 293T cells (minigene); set-up: species or system human; settings: for EC50: Homo sapiens, HEK-293T; for splicing modulation in cells: cellular SMN2 splicing assays
[6] = target: COVID RNA (SARS-CoV-2 RNA SL5 per FIG. 8); assay: FP binding, Kd for COVID RNA
[7] = test system: seq 1 (GAUGGAGAG), contains the AUG start codon; assay: FP binding assay, SARS-CoV-2 seq 1 (start codon)
seq 1-RC = assay: FP binding assay, reverse complement of seq 1
RNA Seq6 UGAAGGAAGGU = assay: Fluorescence polarization (FP) binding assay, RNA Seq6
Procedure: as §1, §2

SARS-CoV-2 SL5 RNA = assay: Deconvolution of the RNA-binding site within SL5; settings: FIG. 7D
[8] = test system: SARS-CoV-2 minigene mRNA (5′ and 3′ UTRs, Gaussia luciferase); assay: SARS-CoV-2 minigene HEK293 cell model, RT-qPCR of viral minigene mRNA; type: cell-based; settings: 24 hours
SARS-CoV-2 5′ UTR = SARS-CoV-2 5′ UTR expressing 293T cells (Gaussia luciferase cassette), RNA reduction; type: cell-based
[9] = test system: SMN2 gene vs forkhead box M1 (FoxM1) gene; settings: cited from earlier work
[10] = Table 3, read-out: SMN2 Splicing EC50
[11] = cell-based SMN2 splicing assay in 293T cells, read-out: SMN2 EC50

Sequence of von Hippel-Lindau (VHL) E3 ligase (P40337 54-213 limits assumed, species assumed): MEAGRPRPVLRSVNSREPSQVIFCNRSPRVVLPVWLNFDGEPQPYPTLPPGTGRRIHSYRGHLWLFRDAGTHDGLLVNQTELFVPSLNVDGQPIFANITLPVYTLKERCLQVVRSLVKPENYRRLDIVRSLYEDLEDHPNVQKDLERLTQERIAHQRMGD
Sequence of von Hippel-Lindau (VHL) E3 ligase (Q15369 17-112 partner limits assumed, species assumed): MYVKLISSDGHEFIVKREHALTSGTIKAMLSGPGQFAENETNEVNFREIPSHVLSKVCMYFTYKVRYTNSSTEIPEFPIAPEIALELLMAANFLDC
Sequence of von Hippel-Lindau (VHL) E3 ligase (Q15370 whole entry partner, species assumed): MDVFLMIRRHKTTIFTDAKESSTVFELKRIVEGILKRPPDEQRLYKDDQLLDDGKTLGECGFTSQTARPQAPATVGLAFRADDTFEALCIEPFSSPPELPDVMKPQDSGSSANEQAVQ

## Cc1cc([C@H](C(=O)N2C[C@H](O)C[C@H]2C(=O)N[C@@H](CC(=O)N2CCC(C#Cc3ccc(C(=O)N[C@H]4C(C)(C)[C@H](Oc5ccc(C#N)c(Cl)c5)C4(C)C)cc3)CC2)c2ccccc2)C(C)C)on1 [ARD-266]
[1]
  Kd: micromolar

## CCN1CCN(c2cc(C)c3nc(-c4cc5c(C)nc(C)cn5n4)cc(=O)n3c2)CC1 [Compound C3, 2-(4,6-dimethylpyrazolo[1,5-a]pyrazin-2-yl)-7-(4-ethylpiperazin-1-yl)-9-methyl-4H-pyrido[1,2-a]pyrimidin-4-one, reference compound]
Gene splicing
  number of genes whose splicing is significantly affected: 13 genes
In vitro [2]
  CC50: > 30 µM
In vitro [3]
  CC50: > 30 µM
In vitro [4]
  CC50: > 30 µM

## Cc1cn2cc(-c3cc4ccc(N5CCN[C@@H](C)C5)cc4oc3=O)nc2c(C)n1 [Compound C4, (S)-3-(6,8-dimethylimidazo[1,2-a]pyrazin-2-yl)-7-(3-methylpiperazin-1-yl)-2H-chromen-2-one, reference compound]
[5]
  Kd: 2.9 ± 0.3 µM
RNA Seq4 […]
  Kd: 25.4 ± 7.3 µM
SMN2 exon 7 splicing; [10]
  EC50: 0.0139 ± 0.0026 µM
SMN2 exon 7 splicing; [11]
  EC50: 0.014 ± 0.003 µM
[6]; Table 3
  Kd: 1.3 ± 0.3 µM
[6]; Table 4
  Kd: 1.3 ± 0.3 µM
[7]
  binding to seq 1: preferentially binds to seq 1
Seq 1-RC
  binding to seq 1-RC: does not bind
In vitro [4]
  CC50: > 13 µM

## Cc1cn2cc(-c3cc4ccc(N5CCN(CCNC(=O)OC(C)(C)C)[C@@H](C)C5)cc4oc3=O)nc2c(C)n1 [Compound C6, (S)-tert-butyl(2-(4-(3-(6,8-dimethylimidazo[1,2-a]pyrazin-2-yl)-2-oxo-2H-chromen-7-yl)-2-methylpiperazin-1-yl)ethyl)carbamate]
RNA Seq6 UGAAGGAAGGU; Table 1 RNA Seq6 (SMN-C2) vs Table 2 entry 6
  reduction of binding to RNA Seq6 by the Boc group: ~3 fold
RNA Seq6 UGAAGGAAGGU; footnote d: FP assay for RNA Seq6, read-out: Kd
  Kd: 51.2 ± 4.9 µM
[5]
  Kd: 4 ± 0.3 µM
RNA Seq4 […]
  Kd: 37.5 ± 14 µM
SMN2 exon 7 splicing; [11]
  EC50: > 8 µM
SMN2 exon 7 splicing
  splicing modulation in cells: without showing any observable splicing modulation
[6]; Table 3
  Kd: 3 ± 0.4 µM
[6]; Table 4
  Kd: 3.03 ± 0.4 µM

## CN1CCN(c2ccc3cc(-c4ccccc4Cl)c(=O)oc3c2)CC1 [Compound C18, 3-(2-chlorophenyl)-7-(4-methylpiperazin-1-yl)-2H-chromen-2-one]
[5]
  Kd: > 100 µM
SMN2 exon 7 splicing; [10]
  EC50: > 8 µM
SMN2 exon 7 splicing; [11]
  EC50: > 8 µM

## CN1CCN(c2ccc3cc(-c4cccc(Cl)c4)c(=O)oc3c2)CC1 [Compound C19, 3-(3-chlorophenyl)-7-(4-methylpiperazin-1-yl)-2H-chromen-2-one]
[5]
  Kd: 13.9 ± 1.1 µM
SMN2 exon 7 splicing; [10]
  EC50: > 8 µM
SMN2 exon 7 splicing; [11]
  EC50: > 8 µM
In vitro [2]
  CC50: > 30 µM
In vitro [3]
  CC50: > 30 µM
In vitro [4]
  CC50: > 30 µM

## CN1CCN(c2ccc3cc(-c4ccc(Cl)cc4)c(=O)oc3c2)CC1 [Compound C20, 3-(4-chlorophenyl)-7-(4-methylpiperazin-1-yl)-2H-chromen-2-one]
[5]
  Kd: 8.2 ± 0.7 µM
SMN2 exon 7 splicing; [10]
  EC50: > 8 µM
SMN2 exon 7 splicing; [11]
  EC50: > 8 µM
SMN2 exon 7 splicing
  splicing modulation in cells: without showing any observable splicing modulation

## Cc1c(-c2cccc(Cl)c2)c(=O)oc2cc(N3CCN(C)CC3)ccc12 [Compound C22, 3-(3-chlorophenyl)-4-methyl-7-(4-methylpiperazin-1-yl)-2H-chromen-2-one]
[5]
  Kd: > 100 µM
SMN2 exon 7 splicing; [10]
  EC50: > 8 µM
SMN2 exon 7 splicing; [11]
  EC50: > 8 µM
In vitro [2]
  CC50: > 30 µM
In vitro [3]
  CC50: > 30 µM
In vitro [4]
  CC50: > 30 µM

## Cc1c(-c2ccc(Cl)cc2)c(=O)oc2cc(N3CCN(C)CC3)ccc12 [Compound C23, 3-(4-chlorophenyl)-4-methyl-7-(4-methylpiperazin-1-yl)-2H-chromen-2-one]
[5]
  Kd: > 100 µM
SMN2 exon 7 splicing; [10]
  EC50: > 8 µM
SMN2 exon 7 splicing; [11]
  EC50: > 8 µM

## CN1CCN(c2cc(F)c3cc(-c4cccc(Cl)c4)c(=O)oc3c2)CC1 [Compound C25, 3-(3-chlorophenyl)-5-fluoro-7-(4-methylpiperazin-1-yl)-2H-chromen-2-one]
[5]
  Kd: 18.7 ± 4 µM
SMN2 exon 7 splicing; [10]
  EC50: > 8 µM
SMN2 exon 7 splicing; [11]
  EC50: > 8 µM

## CN1CCN(c2cc(F)c3cc(-c4ccc(Cl)cc4)c(=O)oc3c2)CC1 [Compound C26, 3-(4-chlorophenyl)-5-fluoro-7-(4-methylpiperazin-1-yl)-2H-chromen-2-one]
[5]
  Kd: 9.9 ± 0.9 µM
SMN2 exon 7 splicing; [10]
  EC50: > 8 µM
SMN2 exon 7 splicing; [11]
  EC50: > 8 µM
In vitro [2]
  CC50: > 30 µM
In vitro [3]
  CC50: > 30 µM
In vitro [4]
  CC50: > 30 µM

## COc1cn2cc(-c3cc4ccc(N5CCNCC5)cc4oc3=O)nc2cn1 [Compound C28, 3-(6-methoxyimidazo[1,2-a]pyrazin-2-yl)-7-(piperazin-1-yl)-2H-chromen-2-one]
[5]
  Kd: 1.4 ± 0.2 µM
SMN2 exon 7 splicing; [10]
  EC50: > 8 µM
SMN2 exon 7 splicing; [11]
  EC50: > 8 µM
SMN2 exon 7 splicing
  splicing modulation in cells: without showing any observable splicing modulation
[6]; Table 3
  Kd: 0.47 ± 0.08 µM
[6]; Table 4
  Kd: 0.47 ± 0.8 µM

## O=c1oc2cc(N3CCNCC3)ccc2cc1-c1cn2ccccc2n1 [Compound C29, 3-(imidazo[1,2-a]pyridin-2-yl)-7-(piperazin-1-yl)-2H-chromen-2-one]
[5]
  Kd: 2.8 ± 0.5 µM
SMN2 exon 7 splicing; [10]
  EC50: > 8 µM
SMN2 exon 7 splicing; [11]
  EC50: > 8 µM
SMN2 exon 7 splicing
  splicing modulation in cells: without showing any observable splicing modulation
[6]; Table 3
  Kd: 0.46 ± 0.08 µM
[6]; Table 4
  Kd: 0.46 ± 0.8 µM
In vitro [4]
  CC50: 5.4 µM

## O=c1oc2cc(N3CCNCC3)ccc2cc1-c1cn2ccc(F)cc2n1 [Compound C30, 3-(7-fluoroimidazo[1,2-a]pyridin-2-yl)-7-(piperazin-1-yl)-2H-chromen-2-one]
[6]; Table 3
  Kd: 0.21 ± 0.04 µM
[6]; Table 4
  Kd: 0.21 ± 0.4 µM
SARS-CoV-2 SL5 RNA
  binding site within SL5: selectively binds to the RNA structure containing the bulged G in SL5

## O=c1oc2cc(N3CCNCC3)ccc2cc1-c1cn2cc(F)ccc2n1 [Compound C31, 3-(6-fluoroimidazo[1,2-a]pyridin-2-yl)-7-(piperazin-1-yl)-2H-chromen-2-one]
[6]; Table 3
  Kd: 0.68 ± 0.1 µM
[6]; Table 4
  Kd: 0.68 ± 0.1 µM
In vitro [4]
  CC50: 4.7 µM

## CCOC(=O)C1=C(Nc2ccccc2)S/C(=C\c2ccc(OCCOCCn3cc(COCCOCCOCCOCCN4CCN(c5ccc6cc(-c7cn8ccc(F)cc8n7)c(=O)oc6c5)CC4)nn3)c(O)c2)C1=O [Compound C47]
[8]; 25 μM, normalized with GAPDH
  reduction of viral minigene mRNA level: ~50%
[8]; different concentrations
  effect on RNA level (RT-qPCR): reduce the RNA level in a dose-dependent manner
SARS-CoV-2 5′ UTR
  maximum potency / activity (RNA reduction level): between those of C64 and C65

## CCc1nc(C)cn2nc(-c3cc(=O)n4cc(C5CCN(C)CC5)cc(C)c4n3)cc12 [RG-7800]
[9]
  sensitivity of SMN2 gene compared to FoxM1: ~10 times

## CC1(C)CC(Oc2ccc(-c3ccc(-c4cn[nH]c4)cc3O)nn2)CC(C)(C)N1 [branaplam]
Gene splicing
  number of genes whose splicing is significantly affected: 36 genes
